In article PMC9321231:

Assays:
[1] = tested on: urinary bladder carcinoma (UMUC-3) cells; assay: Antiproliferative assay (MTT or SRB), UMUC-3; type: cell-based, human; details: for IC50: Homo sapiens, UMUC3, UMUC-3, read-out: IC50 ± SD, antiproliferative activity; for Calculated Selectivity Index SI: IC50 Balb/3T3 / IC50 UMUC-3
Experimental: Cell preparation, an in vitro antiproliferative assay, and MTT and SRB cytotoxic tests were performed according to the literature.

A549 cells [2] = assay: Apoptosis/necrosis assay, Annexin V-FITC/PI flow cytometry; type: cell-based, human; details: for percentage of A549 cells undergoing apoptosis: 48 h, control 6.05 ± 0.17%; for induction of necrosis: A549, 48 h
Experimental: (§1) The rate of cell apoptosis and necrosis was detected using Annexin V-FITC/PI double staining. […] Compound 3e turned out to be a stronger inducer of apoptosis than 3c. […] In turn, compound 3c induced apoptosis only at the concentrations of 10 and 20 µM, and the percentage of cells undergoing apoptosis increased from 6.05 ± 0.17% in the control to 10.14 ± 0.76% and 14.67 ± 0.68%, respectively (Figure 4B). Moreover, compound 3e at a concentration of 5 µM induced apoptosis to a similar level as cisplatin (CDDP) used at a concentration of 4 µM. To identify the mechanism of the 3c- and 3e-induced apoptosis in the A549 cells, the activation of effector caspase-3 was evaluated by flow cytometry. […] To further explore the antiproliferative activity of compounds 3c and 3e, the influence of both compounds on the distribution of cell cycle phases in the A549 cells was analyzed. […] The G2 checkpoint prevents cells from entering mitosis when DNA is damaged, providing an opportunity for repair and stopping the proliferation of damaged cells. […] Apoptosis is a crucial process involved in the regulation of tumor formation and in the treatment response; therefore, cancer therapy has been linked to activation of the apoptosis signal transduction pathway. Caspase-3, an executioner caspase, plays an important role in apoptosis and becomes a primary target for cancer treatment.
(§2) The fluorescence-activated cell sorting (FACS) technique was employed to analyze the 3c- and 3e-induced cell death, the activation of executive caspase-3, and the cell cycle in the A549 cells. The quantitative analysis of apoptosis and necrosis was performed using an Annexin V-fluorescein isothiocyanate (FITC)/ propidium iodide (PI) apoptosis kit (BD Biosciences, BD Pharmingen™, San Jose, CA, USA) as previously described. To determine the active form of caspase-3, the A549 cells were plated into 6-well plates at a density of 6 × 10^5 cells/well. The next day, the growth medium was replaced with a fresh one supplemented with compound 3c or 3e (10, 20, and 40 µM) or the DMSO vehicle (0.1%; control cells). After 48-h incubation, the samples were harvested and the level of active caspase-3 was determined using the phycoerythrin (PE) Active Caspase-3 Apoptosis Kit (BD Pharmingen™) according to the manufacturer’s instructions. The stained cells were analyzed using FACS Calibur, and data were analyzed using Cell Quest Pro Version 6.0 (BD Biosciences, San Jose, CA, USA) for the Macintosh operating system. The results were calculated as a percent of cells with active caspase-3 among all the analyzed cells. The cell cycle analysis was performed by determination of the DNA contents on the basis of PI staining as previously described.
Figure 4 Effect of compounds 3c and 3e and cisplatin (CDDP) on apoptosis induction in the A549 cell line. After the 48-h exposure to the indicated concentrations of the compounds, the cells were stained with annexin (An) V-FITC)/propidium iodide (PI) and examined with flow cytometry. (A) The representative graphs obtained by flow cytometric analysis: dot plots indicate the percentage of An−/PI+ necrotic cells (Q1), An+ /PI+ late apoptotic cells (Q2), An−/PI− viable cells (Q3), and An+ /PI− early apoptotic cells (Q4). (B) Statistical analysis of the apoptotic (early + late apoptosis) and necrotic rate populations after the 3c, 3e, and cisplatin (CDDP) treatment. Data are presented as mean ± SD from three independent experiments; *** p < 0.001 in comparison to the control; one-way ANOVA followed by Dunnett’s post hoc test.

caspase-3 in A549 cells = assay: Active caspase-3 flow cytometry; type: cell-based, human; details: A549, 48 h; 10, 20 and 40 µM per method
Experimental: The rate of cell apoptosis and necrosis was detected using Annexin V-FITC/PI double staining. […] Compound 3e turned out to be a stronger inducer of apoptosis than 3c. […] In turn, compound 3c induced apoptosis only at the concentrations of 10 and 20 µM, and the percentage of cells undergoing apoptosis increased from 6.05 ± 0.17% in the control to 10.14 ± 0.76% and 14.67 ± 0.68%, respectively (Figure 4B). Moreover, compound 3e at a concentration of 5 µM induced apoptosis to a similar level as cisplatin (CDDP) used at a concentration of 4 µM. To identify the mechanism of the 3c- and 3e-induced apoptosis in the A549 cells, the activation of effector caspase-3 was evaluated by flow cytometry. […] To further explore the antiproliferative activity of compounds 3c and 3e, the influence of both compounds on the distribution of cell cycle phases in the A549 cells was analyzed. […]
The fluorescence-activated cell sorting (FACS) technique was employed to analyze the 3c- and 3e-induced cell death, the activation of executive caspase-3, and the cell cycle in the A549 cells. The quantitative analysis of apoptosis and necrosis was performed using an Annexin V-fluorescein isothiocyanate (FITC)/ propidium iodide (PI) apoptosis kit (BD Biosciences, BD Pharmingen™, San Jose, CA, USA) as previously described. […] The results were calculated as a percent of cells with active caspase-3 among all the analyzed cells. […]

A549 cells [3] = assay: Cell cycle analysis, PI staining flow cytometry; type: cell-based, human; details: 48 h, control 6.20 ± 0.23%
Experimental: as §1, §2
Figure 6 Effect of compounds 3c and 3e on cell cycle distribution in A549 cells. After the treatment with the indicated concentrations of compounds 3c and 3e for 48 h, the cells were stained with propidium iodide and analyzed by flow cytometry. (A) Representative DNA histograms of A549 cells treated with compounds 3c and 3e. (B,C) Statistical analysis of the percentages of A549 cells in the sub-G1, G0/G1, S, and G2/M phases after treatment with compounds 3c and 3e, respectively. Data are expressed as means ± SD from three independent experiments. ** p < 0.01 and *** p < 0.001 in comparison to the control; one-way ANOVA followed by Tukey’s post hoc test.

[4] = Spontaneous hydrolysis (chemical stability) in phosphate buffer, spectrophotometric; type: physicochemical; details: 0.05 M phosphate buffer, pH 7.3, 25 °C; for half-life: t1/2 = 0.693/k'
Experimental: Testing the stability of new drugs is of great importance for obtaining a good therapeutic profile as well as the safety of their future use. Degradation impurities can reduce drug efficacy and generate undesirable side effects.
The kinetics hydrolysis of the compounds was evaluated at 25 °C in 0.05 M phosphate buffer, pH 7.3, by measuring changes in absorbance spectra during incubation using a T60U spectrophotometer (PG Instruments). The absorbance (At) at characteristic absorption maxima for each compound was measured at 10 min intervals until there was no further decrease in absorbance (Aꝏ). Using these measurements, semilogarithmic plots of the dependence of log(At–Aꝏ) on time were prepared, and k’ values were determined from the slope of these plots according to first order reaction kinetics. Half-conversion times were calculated using equation: t1/2 = 0.693/k’.

[5] = biological target: T1, human neutrophil elastase (HNE) (Homo sapiens, UniProt P08246); assay: Human neutrophil elastase inhibition assay (spectrofluorimetric, MeOSuc-AAPV-AMC substrate)
T1 sequence (P08246 30-267): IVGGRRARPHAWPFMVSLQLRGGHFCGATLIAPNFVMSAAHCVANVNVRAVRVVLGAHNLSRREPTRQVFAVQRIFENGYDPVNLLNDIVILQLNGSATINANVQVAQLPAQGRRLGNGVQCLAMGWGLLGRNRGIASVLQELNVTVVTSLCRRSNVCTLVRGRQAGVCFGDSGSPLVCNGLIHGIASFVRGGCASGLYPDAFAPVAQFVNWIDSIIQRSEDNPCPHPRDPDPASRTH
Experimental: The inhibition of human neutrophil elastase was carried out by the spectrofluorimetric method using N-methoxysuccinyl-Ala-Ala-Pro-Val-7-amido-4-methylcoumarin (MeOSuc-AAPV-AMC) as substrate.

IC50 [1]	k, rate constant of spontaneous hydrolysis [4]	half-life [4]	IC50 [5]	Structure (SMILES)	Calculated Selectivity Index SI [1]	percentage of A549 cells undergoing apoptosis (A549 cells [2]; 5 µM)	percentage of A549 cells undergoing apoptosis (A549 cells [2]; 10 µM)	percentage of A549 cells undergoing apoptosis (A549 cells [2]; 20 µM)	induction of necrosis (A549 cells [2])	number of cells with active caspase 3 (caspase-3 in A549 cells)	G2/M fraction of A549 cells (A549 cells [3]; 5 µM)	G2/M fraction of A549 cells (A549 cells [3]; 10 µM)	G2/M fraction of A549 cells (A549 cells [3]; 20 µM)
7.49 ± 0.64 µM	0.0175 min⁻¹	39.6 min	35 ± 3.88 nM	CCC1(CC)C(=O)N(c2ccc(-c3csc(Nc4ccc(S(N)(=O)=O)cc4)n3)cc2)C1=O [3e, 4-(4-(4-(3,3-Diethyl-2,4-dioxoazetidin-1-yl)phenyl)thiazol-2-ylamino)benzenesulfo-namide]	0.88	8.79 ± 0.50%	14.45 ± 1.02%	23.39 ± 0.31%	no induction of necrosis was observed	concentration-dependent increase in the number of cells with active caspase 3	9.08 ± 0.69%	10.83 ± 1.06%	35.78 ± 0.46%
6.9 ± 0.21 µM	0.015 min⁻¹	46.2 min	38.2 ± 4.91 nM	CCC1(CC)C(=O)N(c2ccc(-c3csc(Nc4cc(OC)c(OC)c(OC)c4)n3)cc2)C1=O [3c, 3,3-Diethyl-1-(4-(2-(3,4,5-trimethoxyphenylamino)thiazol-4-yl)phenyl)azetidine-2,4-dione]	1.07		10.14 ± 0.76%	14.67 ± 0.68%	no induction of necrosis was observed	concentration-dependent increase in the number of cells with active caspase 3	9.69 ± 0.77%	15.68 ± 5.31%	29.04 ± 1.09%
